# Data from PubChem BioAssay AID1963873 (Molecular Pharmacology Branch, DTP, NCI, 2024).
# “And” between values parts separate entries of the source, which are not always exact repeats. Identical values can stand only once.
# Test system: 276233-004-R-J1-PDC KRAS spheroids with HUVEC/MSC, viability
# Assay: Anticancer human tumor 276233-004-R-J1-PDC patient-derived colon adenocarcinoma cell line growth inhibition [KRAS2]
# Conditions: for viability, T/C: stronger effect = lower value
# From the text: Multicellular complex tumor spheroid response to RAS pathway inhibitors in combination with a targeted agents in patient-derived cell lines with oncogenic KRAS variants from multiple cancer types
# A high-throughput screen of multi-cell type tumor spheroids was designed to identify active combinations of targeted small molecules and KRAS pathway inhibitors. Complex spheroids include a stromal component modeled by human endothelial cells (HUVEC) and fibroblasts modeled by human mesenchymal stem cells (MSCs). The concentration ranges selected for each drug and investigational agent were based upon clinically achievable concentrations if the clinical Cmax of the agent was known.
# Compounds. The drugs and investigational agents: BI-3406 (NSC825286), BAY-293 (NSC824723), batoprotafib (TNO155; NSC825523), sotorasib (AMG 510; NSC818433), MRTX1257 (NSC819558), elimusertib (BAY 1895344; NSC800525), molibresib (GSK525762; NSC774829), temuterkib (LY3214996; NSC803410), venetoclax (NSC766270), alisertib (NSC759677), olaparib (NSC753686), talazoparib (NSC767125), erdafitinib (NSC781556), ipatasertib (NSC767898), cabozantinib (NSC761068), nintedanib (NSC756659), abemaciclib (NSC768073), docetaxel (NSC628503), trametinib (NSC758246), and sapanisertib (NSC764658) were obtained from the National Cancer Institute (NCI) Developmental Therapeutics Program Chemical Repository. The FDA-approved anticancer drug set is available from the Developmental Therapeutics Program. […] The stock solutions were prepared in dimethyl sulfoxide (DMSO, Sigma-Aldrich, St. Louis, MO, cat. D2650) at 800-fold the tested concentration and stored at -70 degrees C prior to their use. All drugs and investigational agents were tested over a range starting from a high concentration at or near the clinical Cmax and decreasing in half-log increments. If the clinical Cmax for an agent had not been determined, the highest concentration tested was 10 microM.
# Cell Culture. All cells were maintained in an incubator at 37 degrees C and 5% CO2 with 95% humidity. The PDC lines were cultured according to standard operating procedures established by the NCI PDMR (https://pdmr.cancer.gov/sops/default.htm). Briefly, all PDCs were thawed and cultured in Matrigel-coated flasks prepared with a working solution of 1X Ham's F-12 nutrient mix, without supplementation (Invitrogen, Waltham, MA, cat. 11765054), 100 U/mL penicillin-streptomycin (Invitrogen, cat. 15140122), and 2.5% Matrigel (Corning Inc., Corning, NY, cat. 354248) for the first three passages. All PDCs were cultured in complete DMEM/F-12 media containing advanced DMEM/F-12 (Invitrogen, cat. 12634028), 4.9% defined fetal bovine serum, heat inactivated (HyClone Laboratories Inc., Logan, UT, cat. SH30070.03HI), 389 ng/mL hydrocortisone (Sigma-Aldrich, cat. H4001), 9.7 ng/mL human EGF recombinant protein (Invitrogen, cat. PHG0313), 23.4 microg/mL adenine (Sigma-Aldrich, cat. A2786), 97.3 U/mL penicillin-streptomycin (Invitrogen, cat. 15140122), 1.9 mM L-glutamine (Invitrogen, cat. 25030081), and 9.7 microM Y-27632 dihydrochloride (Tocris Bioscience, Bristol, United Kingdom, cat. 1254). The PDCs were cultured in complete DMEM/F12 media without 9.7 microM Y-27632 dihydrochloride for at least two passages prior to the screen. The established cell line HOP-62 was cultured in RPMI 1640 medium, HEPES (Invitrogen, cat. 22400105) with 10% defined fetal bovine serum (HyClone Laboratories Inc., cat. SH30070.03) and 2 mM L-glutamine (Invitrogen, cat. 25030081). The pooled donor HUVEC were cultured in endothelial cell growth medium 2 (PromoCell, Heidelberg, Germany, cat. C-22011) and the hMSC were cultured in mesenchymal stem cell growth medium 2 (PromoCell, cat. C-28009). For all experiments, HUVEC and hMSC were used at passages </=5, while the malignant cell lines were used at passages </=15. […]
# [1] = curve of first compound, second compound 0.1 µM
# [2] = curve of first compound, second compound 0.316 µM
# [3] = curve of first compound, second compound 1 µM
# [4] = curve of first compound, second compound 3.16 µM
# [5] = curve of first compound, second compound 10 µM
# [6] = second compound 0.1 µM, first compound 0.00316 µM
# [7] = second compound 0.1 µM, first compound 0.01 µM
# [8] = second compound 0.1 µM, first compound 0.0316 µM
# [9] = second compound 0.1 µM, first compound 0.1 µM
# [10] = second compound 0.316 µM, first compound 0.00316 µM
# [11] = second compound 0.316 µM, first compound 0.01 µM
# [12] = second compound 0.316 µM, first compound 0.0316 µM
# [13] = second compound 0.316 µM, first compound 0.1 µM
# [14] = second compound 1 µM, first compound 0.00316 µM
# [15] = second compound 1 µM, first compound 0.01 µM
# [16] = second compound 1 µM, first compound 0.0316 µM
# [17] = second compound 1 µM, first compound 0.1 µM
# [18] = second compound 3.16 µM, first compound 0.00316 µM
# [19] = second compound 3.16 µM, first compound 0.01 µM
# [20] = second compound 3.16 µM, first compound 0.0316 µM
# [21] = second compound 3.16 µM, first compound 0.1 µM
# [22] = second compound 10 µM, first compound 0.00316 µM
# [23] = second compound 10 µM, first compound 0.01 µM
# [24] = second compound 10 µM, first compound 0.0316 µM
# [25] = second compound 10 µM, first compound 0.1 µM
# 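Also: cells exposed to agents for seven days before viability read.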
# 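For viability, T/C in this document: 100% = DMSO vehicle control wells and lower values mean fewer viable cells.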
Compound,IC50 [1] [nM],IC50 [2] [nM],IC50 [3] [nM],IC50 [4] [nM],IC50 [5] [nM],"viability, T/C [6] [%]","viability, T/C [7] [%]","viability, T/C [8] [%]","viability, T/C [9] [%]","viability, T/C [10] [%]","viability, T/C [11] [%]","viability, T/C [12] [%]","viability, T/C [13] [%]","viability, T/C [14] [%]","viability, T/C [15] [%]","viability, T/C [16] [%]","viability, T/C [17] [%]","viability, T/C [18] [%]","viability, T/C [19] [%]","viability, T/C [20] [%]",also measured
CC1COCCN1c1cc(-c2ccnn2C)c2ccnc(-c3ccn[nH]3)c2n1 (stereo not drawn),,,,,,,,,,,,,,,,,,,,,"viability, T/C (compound 0.01 µM): 96.2% [middle of 5 runs]; viability, T/C (compound 0.1 µM): 82% [middle of 5 runs]; IC50 (curve of compound): > 3160 nM and 735 nM"
CCN1CCN(Cc2ccc(Nc3ncc(F)c(-c4cc(F)c5nc(C)n(C(C)C)c5c4)n3)nc2)CC1 + C=CC(=O)N1CCN(c2nc(=O)n(-c3c(C)ccnc3C(C)C)c3nc(-c4c(O)cccc4F)c(F)cc23)C(C)C1,> 1000,> 1000,> 1000,> 1000,> 1000,85.7,105,83.5,98.2,100,78.8,82.4,81.8,95,118,93.7,88.8,92.7,101,91.2,"viability, T/C (second compound 0.1 µM, first compound 0.316 µM): 88.1%; viability, T/C (second compound 0.1 µM, first compound 1 µM): 106%; viability, T/C (second compound 0.316 µM, first compound 0.316 µM): 101%; viability, T/C (second compound 0.316 µM, first compound 1 µM): 125%; viability, T/C (second compound 1 µM, first compound 0.316 µM): 110%; viability, T/C (second compound 1 µM, first compound 1 µM): 101%; viability, T/C [21]: 80.2%; viability, T/C (second compound 3.16 µM, first compound 0.316 µM): 74.2%; viability, T/C (second compound 3.16 µM, first compound 1 µM): 119%; viability, T/C [22]: 62.9%; viability, T/C [23]: 68.2%; viability, T/C [24]: 69.7%; viability, T/C [25]: 70.3%; viability, T/C (second compound 10 µM, first compound 0.316 µM): 87.1%; viability, T/C (second compound 10 µM, first compound 1 µM): 65.4%"
CN(C)C/C=C/C(=O)Nc1cc2c(Nc3ccc(F)c(Cl)c3)ncnc2cc1O[C@H]1CCOC1 + C=CC(=O)N1CCN(c2nc(=O)n(-c3c(C)ccnc3C(C)C)c3nc(-c4c(O)cccc4F)c(F)cc23)C(C)C1,> 100,> 100,> 100,> 100,> 100,72,87.6,75.8,85.3,83,67.6,88,87,80.8,82.6,84.6,95.6,85.9,69.9,78.6,"viability, T/C (second compound 0.1 µM, first compound 0.000316 µM): 93.5%; viability, T/C (second compound 0.1 µM, first compound 0.001 µM): 97.1%; viability, T/C (second compound 0.316 µM, first compound 0.000316 µM): 109%; viability, T/C (second compound 0.316 µM, first compound 0.001 µM): 80.8%; viability, T/C (second compound 1 µM, first compound 0.000316 µM): 103%; viability, T/C (second compound 1 µM, first compound 0.001 µM): 101%; viability, T/C (second compound 3.16 µM, first compound 0.000316 µM): 87.1%; viability, T/C (second compound 3.16 µM, first compound 0.001 µM): 77.8%; viability, T/C [21]: 69.7%; viability, T/C (second compound 10 µM, first compound 0.000316 µM): 66%; viability, T/C (second compound 10 µM, first compound 0.001 µM): 65.8%; viability, T/C [22]: 57.8%; viability, T/C [23]: 66.8%; viability, T/C [24]: 69.1%; viability, T/C [25]: 84.9%"
